Experimental data taken from ChEMBL document CHEMBL1201862, “PubChem BioAssay data set” (2004).
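The compound was tested at five concentrations on cells cultured in 96-well plates, with a 48-hour exposure period. Abbreviation: GI50, concentration required for 50% inhibition of growth.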 The source made the active and inactive calls. Rule as the data show it: active = GI50 up to about 1.1 µM and inactive = higher.

Key:
Test in all cases: inhibition of tumour cell growth, NCI panel, 48 h
SF-539 = tested on: SF-539
NCI/ADR-RES = tested on: NCI/ADR-RES
COLO 205 = tested on: COLO 205
HCC 2998 = tested on: HCC 2998
SNB-75 = tested on: SNB-75
SF-268 = tested on: SF-268
ACHN = tested on: ACHN
HOP-62 = tested on: HOP-62
SR = tested on: SR
SNB-19 = tested on: SNB-19
OVCAR-4 = tested on: OVCAR-4
TK-10 = tested on: TK-10
UACC-257 = tested on: UACC-257
Hs-578T = tested on: Hs-578T
T47D = tested on: T47D
UO-31 = tested on: UO-31
SF-295 = tested on: SF-295
HL-60 = tested on: HL-60
SK-OV-3 = tested on: SK-OV-3
SN12C = tested on: SN12C

Measured: GI50

N#CC(C#N)=C1CCCS(=O)(=O)c2ccccc21
inactive: SF-539 > 100 µM | NCI/ADR-RES > 100 µM | COLO 205 > 100 µM | HCC 2998 > 100 µM | SNB-75 > 100 µM | SF-268 > 100 µM | ACHN > 100 µM | HOP-62 > 100 µM | SR > 100 µM | SNB-19 > 100 µM | OVCAR-4 > 100 µM | TK-10 > 100 µM | UACC-257 > 100 µM | Hs-578T > 100 µM | T47D > 100 µM | UO-31 > 100 µM | SF-295 > 100 µM | HL-60 > 100 µM | SK-OV-3 > 100 µM | SN12C > 100 µM

O=C1CSC(c2cccc(Oc3ccccc3)c2)N1c1cccc(Cl)c1Cl (stereo not given)
inactive: SF-539 22.9 µM | NCI/ADR-RES 21.9 µM | COLO 205 20 µM | HCC 2998 12.3 µM | SNB-75 41 µM | SF-268 23.6 µM | ACHN 20.7 µM | HOP-62 41.4 µM | SR 19.8 µM | SNB-19 42.8 µM | OVCAR-4 23.2 µM | TK-10 34.6 µM | UACC-257 24.4 µM | Hs-578T 27.8 µM | T47D 35.8 µM | UO-31 36.9 µM | SF-295 39.5 µM | HL-60 22.7 µM | SK-OV-3 65.9 µM | SN12C 31.5 µM

COc1ccc(/C=C/C(=O)c2ccc(OC(=O)/C=C/c3ccccc3)cc2)cc1
inactive: SF-539 11.5 µM | NCI/ADR-RES 31.2 µM | COLO 205 32.2 µM | HCC 2998 16.2 µM | SNB-75 28.9 µM | SF-268 25 µM | ACHN 34.6 µM | HOP-62 61.1 µM | SR 2.28 µM | SNB-19 21.8 µM | OVCAR-4 24.4 µM | TK-10 44.1 µM | UACC-257 37.7 µM | Hs-578T 36 µM | T47D 23.9 µM | UO-31 22.7 µM | SF-295 25.1 µM | HL-60 4.08 µM | SK-OV-3 53 µM | SN12C 26.6 µM

C=CCn1c2c(c3ccccc3c1=O)C(=O)c1ccccc1-2
inactive: SF-539 > 70.6 µM | NCI/ADR-RES > 100 µM | COLO 205 > 100 µM | HCC 2998 > 100 µM | SNB-75 > 81.5 µM | SF-268 > 68.1 µM | ACHN 51.9 µM | HOP-62 31.4 µM | SR 3.97 µM | SNB-19 73.8 µM | OVCAR-4 54.8 µM | TK-10 > 50.6 µM | UACC-257 > 100 µM | Hs-578T > 60.3 µM | T47D > 100 µM | UO-31 > 100 µM | SF-295 > 77.8 µM | HL-60 3.41 µM | SK-OV-3 > 100 µM | SN12C > 100 µM
